A melting point compilation (Tetko et al.; mined from patent text by program, amines drawn as free bases though some values may be those of a salt)

Row | melting point | Structure (SMILES)
1 | 72 to 74 °C | CCOC(=O)C(C(=O)OCC)c1cccc2nnsc12
2 | 109 to 119 °C | CCOC(=S)Nc1nc(OCc2ccc(F)cc2)ncc1F
3 | 105 °C | O=C(O)Cc1ccc(OCCNC(=O)C2Cc3ccccc3N2S(=O)(=O)c2ccc(-c3cc(C(F)(F)F)ccc3Cl)cc2)cc1F (stereo not drawn)
4 | 90 to 92 °C | COc1ccc2c(c1)c(CC(=O)Oc1ccc(CN3CCN(CC(C)(C)SN=O)CC3)cc1)c(C)n2C(=O)c1ccc(Cl)cc1
5 | 288 to 290 °C | CCOC(=O)c1cc2n(C)c3ccc(F)cc3c(=O)n2n1
6 | 138 to 139 °C | C/C(=C\CC1OC(=O)NC1=O)c1cccc(Cc2nc(-c3ccccc3)oc2C)c1 (stereo not drawn)
7 | 156 to 158 °C | Cc1cc(Cl)ccc1OCC(=O)N1Cc2ccc(C(=O)C(Cl)(Cl)Cl)n2Cc2ccccc21
8 | 152 to 153 °C | O=C(Nc1cccc(CN2CCCCC2)c1)C1=Cc2cc(-c3ccccc3)ccc2CC1
9 | 97 to 103 °C | C=CCn1c(=O)c(C(=O)OCC)c(N2CCCC2)c2ccc(C)nc21
10 | 91 to 93 °C | CCCCCCNC(=O)OC1CCN(C(=O)Oc2ccc(Oc3ccc(OC)cc3)cc2)CC1
11 | 101 to 103 °C | COc1ccc(C=CS(=O)(=O)N2C(=O)CCC2OC(C)C)cc1 (stereo not drawn)
12 | 137 to 138 °C | Cc1ccc(-c2cccc3ccccc23)n1CC[C@H]1C[C@H](O)CC(=O)O1 (relative stereo)
13 | 96.5 °C | CCCc1cc(Cl)nc(-c2cccc(Oc3ccccc3Cl)n2)n1
14 | 173 to 175 °C | CCCCCN1C(=O)C2(COc3cc4c(cc32)OCO4)c2c(C(=O)Nc3cccc(OC)c3)cccc21 (stereo not drawn)
15 | 167 °C | CC(c1cc(Cl)ccc1O)c1cc(Br)ccc1O (stereo not drawn)
16 | 188 to 191 °C | COc1cccc(CNC(=O)c2cc3c(=O)n(CCC(=O)c4ccccc4)c(=O)n(C)c3s2)c1
17 | 165 °C | Cc1cc(C(=O)Nc2ccc(OCC(C)(C)C)c(C#N)c2)n(-c2ccc(F)cc2)n1
18 | 118 to 120 °C | O=C(Nc1ccc(N2CCN(C(=O)Nc3ccc(OCCO)cc3C(F)(F)F)CC2)cc1)Nc1ccccc1OC(F)F

Row | melting point | Structure (SMILES)
19 | 175 °C | CCOC(=O)CC[C@H](NC(=O)c1ccc(NS(=O)(=O)c2cc3c(cc2Br)CCc2nc(N)[nH]c(=O)c2-3)cc1)C(=O)OCC
20 | 220 to 228 °C | CN(CC(=O)O)[C@H]1CC[C@H](Nc2ncc3ncnc(Nc4ccc(F)c(Cl)c4)c3n2)CC1
21 | 221 to 224 °C | COc1cc2c(Nc3ccc(Cl)cc3F)ncnc2cc1OCc1ccnc(C)c1
22 | 152 to 154 °C | CSc1ccc(-c2ccccn2)c2c1C(=O)CC(C)(C)C2
23 | 141 to 143 °C | O=C(Cl)[C@H](Cc1ccccc1)NS(=O)(=O)c1ccc2ccccc2c1
24 | 185 to 187 °C | COc1ccc(Oc2c(OC)cc(N)c3nccc(C)c23)cc1
25 | 160 to 170 °C | CCCN1c2ccccc2C(=O)N(CC(=O)O)c2cc(Cc3c[nH]c4ccccc34)ccc21
26 | 142 to 143 °C | COCc1cc(-n2cc(-c3ccc(-c4ccco4)cc3)c(C(F)(F)F)n2)ccc1S(C)(=O)=O
27 | 238 to 244 °C | Cc1[nH]c(C(=O)NCCc2ccccn2)c(C)c1-c1nc2ccc(C(=O)c3ccccc3)cc2[nH]1
28 | 217 to 219 °C | COC(=O)C1C(=O)Nc2ccccc2CC1c1ccc(OC)cc1 (stereo not drawn)
29 | > 300 °C | CC(=O)Nc1ccc2oc(C(=O)O)cc2c1
30 | 190 °C | CCOC(=O)c1c(C)nn(C)c1CS(=O)(=O)NC(=O)Nc1nc(OC)cc(OC)n1
31 | 324 °C | O=C(Oc1ccc2cc3cc(OC(=O)c4ccc(O)cc4)ccc3cc2c1)c1ccc(O)cc1
32 | 234 °C | O=C(Nc1ccc(OCCNCC2CC2)cc1)c1c[nH]c2c1C(=O)CCC2
33 | 223 to 225 °C | CCC(CC)c1ccc(C#N)c2nc(Nc3c(C)cc(Cl)cc3OC)n(C)c12
34 | 193 to 195 °C | CCCC(=O)NS(=O)(=O)c1ccc(C(=O)/C=C/c2cc(N3CCCC3)c(OC)cc2OC)cc1
35 | 85 to 87 °C | O=C(Nc1ccc2[nH]cnc2c1)C(=O)N1CCC(Cc2ccccc2)CC1
36 | 129 to 131 °C | COC(=O)CC[C@H](NC(=O)c1c[nH]c(CCC2CNc3nc(NC(=O)C(C)(C)C)nc(O)c3C2)n1)C(=O)OC (stereo partly drawn)

Second part, the molecule before the results:

Row | Structure (SMILES) | melting point
37 | COc1cccc(C#Cc2ncn3c2[C@@H]2CCCN2C(=O)c2c(Cl)cccc2-3)c1 | 204 to 205 °C
38 | COc1cccc(/C(C#N)=C/c2ccc(OC)c(OC3CCCC3)c2)c1 | 83 to 85 °C
39 | O=C(O)[C@@H]1CCC(=O)N1C(=O)CCC1CCCC1 | 135 to 138 °C
40 | Cc1nc(NC(=O)C2CC2)sc1C(=O)NCc1ccccc1 | 241 to 243 °C
41 | Oc1ccc(-c2ccc(F)cc2F)cc1C12CC3CC(CC(C3)C1)C2 | 146 to 148 °C
42 | CC(C)(C(=O)c1ccccc1)C(N)=S | 172 to 175 °C
43 | COC(=O)C1CCC2C3CCC4CC5OC5CC4(C)C3C(=O)CC12C (stereo not drawn) | 140 to 145 °C
44 | Cc1cccc(C)c1N1CCN(CCNc2cnn(C)c(=O)c2Cl)CC1 | 235 to 242 °C
45 | O=C(O)c1cc2nc(C(F)(F)F)ccc2n1Cc1cccc(F)c1 | 254 to 255 °C
46 | CON=C(C#N)c1ccccc1COc1ccc(Cl)cc1 | 69 to 71 °C
47 | CSc1ccc2c(C3CCN(C(C)=O)CC3)nn(-c3ccccc3)c2c1 | 120 to 122 °C
48 | CCOC(=O)N(c1cccc(C(F)(F)F)c1)c1ccccc1[N+](=O)[O-] | 45 to 48 °C
49 | CN1CCN(C2=Nc3cscc3C(=CC#N)c3cscc32)CC1 | 148 to 151 °C
50 | Nc1ccc(C(c2ccccc2)(c2ccc(N)cc2)C(F)(F)F)cc1 | 217 to 218 °C
51 | N=C(NCc1cnccn1)NN=Cc1c(Cl)cccc1Cl | 168 to 169 °C
52 | O=[N+]([O-])c1ccc(CP2(=O)OCCCCO2)cc1 | 136 to 137 °C
53 | COc1cccc(Cn2cnc3c(-c4ccco4)nc(Cl)nc32)c1 | 160 to 161 °C
54 | CC(=O)NNc1ccc(Cl)c(CN2OCC(C)(C)C2=O)c1 | 178 to 180 °C
55 | COc1cccc2c1CCCC2CN=[N+]=[N-] (stereo not drawn) | 65 to 66 °C
56 | NC(=NO)c1ccc(I)cc1 | 155 to 161 °C
57 | COC(=O)C(c1ccccc1)C(c1ccc(OC)cc1)n1cncn1 (stereo not drawn) | 159 to 161 °C

Row | Structure (SMILES) | melting point
58 | CCc1cc(NC(=O)c2nnn(Cc3ccc(OC)cc3)n2)c(O)c(C(C)=O)c1 | 159 to 160 °C
59 | Cc1nc(CCn2cnc3c2c(=O)n(C)c(=O)n3C)no1 | 112 to 114 °C
60 | COc1ccc(C2CNC(=O)C2)cc1OC(C)C(O)CN1CCN(c2ccccc2)CC1 (stereo not drawn) | 116 to 118 °C
61 | c1ccc(CN2CCC3(CC(c4ccccc4)=NO3)C2)cc1 (stereo not drawn) | 31 to 40 °C
62 | O=C1OC(=O)C2=C1CCOc1ccccc12 | 142 to 143 °C
63 | CC(C)CCN1C(=O)C(NC(=O)Oc2ccccc2)C(=O)N(c2ccccc2)c2ccc(F)cc21 (stereo not drawn) | 160 to 165 °C
64 | O=C(c1ccc(Cl)cc1)n1cc(CCN=c2sc3ccccc3s2)c2ccccc21 | 135 °C
65 | CCC1(C)NC(=O)C(c2c(C)cc(C)cc2C)C1=O (stereo not drawn) | 137 to 142 °C
66 | O=C(O)C1c2ccccc2N=C(N2CCCCC2)N1c1ccccc1 (stereo not drawn) | 238 °C
67 | Cc1ccnc(-n2ccnc2S(=O)Cc2ccccc2N(C)C)c1 (stereo not drawn) | 127 to 129 °C
68 | O=[N+]([O-])c1cc2nc(O)c(O)nc2c2nccnc12 | > 300 °C
69 | CC(C)(C)OC(=O)NC(C(=O)O)C1(O)CCOCC1 (stereo not drawn) | 140 to 141 °C
70 | CC1NC(=O)NN=C1c1ccc2sc(=O)n(CC(=O)N3CCN(CCO)CC3)c2c1 (stereo not drawn) | 248 to 250 °C
71 | COc1cc(OC)nc(C2(C#N)OC(=O)c3c(Cl)ccc(Cl)c32)n1 (stereo not drawn) | 123 to 126 °C
72 | CN1C(=O)C(Cc2ccncc2)(Cc2ccncc2)NC1=S | 225 to 227 °C
73 | CCOC(=O)c1ncn2c1CN=C(c1ccccc1Cl)c1cc([N+](=O)[O-])ccc1-2 | 250 to 252 °C
74 | COc1cccc(Cl)c1C1Cc2c(ccn2C)C2C(=O)NC(=O)C12 (stereo not drawn) | 186 to 188 °C
75 | OC1CSC(Oc2cc(-c3ccnc(F)c3)cc(F)c2F)C(O)C1O (stereo not drawn) | 184 °C
76 | CC1COc2cccc([N+](=O)[O-])c2N1 (stereo not drawn) | 60 °C
77 | C=CCOc1ccc2c(c1)OCC1c3ccccc3OC21 (stereo not drawn) | 72 to 74 °C
78 | CCn1nc(N)nc1NCCCOc1cccc(CN2CCCCC2)c1 | 116 to 118 °C

Row | Structure (SMILES) | melting point
79 | N#CC(C=O)c1cnccn1 (stereo not drawn) | 192 to 194 °C
80 | N#CC(=C1CCCCCN1)c1ccccc1 | 108 to 113 °C
81 | Fc1ccc(-c2nc3n(c2-c2ccnc(Nc4ccccc4)c2)CCS3)cc1 | 299 °C
82 | COc1ccc(C2=NN(CCCCBr)C(=O)[C@H]3CC=CC[C@@H]23)cc1Cl (relative stereo) | 109 to 111 °C
83 | O=C(O)CN1CCC(=C2c3ccccc3COc3ccccc32)CC1 | 132 to 135 °C
84 | COC(=O)[C@H]1C=C(C2CCCCC2)OC(=O)[C@H]1Cc1ccccc1 | 87 to 89 °C
85 | CC12CCC3C(CC(O)C4CC(=O)CCC43C)C1CCC2O (stereo not drawn) | 195 to 205 °C
86 | COc1ccc(Oc2cccc(C(F)(F)F)c2)c(C(=O)O)c1 | 124 °C
87 | Cn1cnc(COc2nn3c(-c4ccccc4)nnc3cc2-c2ccoc2)n1 | 241 °C
88 | COc1ccc(CCNC(=O)[C@@H](N)C(C)C)cc1OC | 52 to 54 °C
89 | Cc1ccc(CSc2nc3cc4c(cc3[nH]2)OCCO4)nc1 | 155 to 156 °C
90 | COc1cc(-c2nc(C)c(C(=O)NN)s2)cc(OC)c1OC | 180 to 181 °C
91 | O=C1CC(CP(=O)(c2ccccc2)c2ccccc2)O1 (stereo not drawn) | 154 to 155 °C
92 | N#Cc1ccc(N2C(=O)N(CCCC(=O)O)C3(CCSCC3)C2=O)cc1C(F)(F)F | 197 to 198 °C
93 | COc1cccc2c1oc1ccccc12 | 49 to 50 °C
94 | N#Cc1ccc(N(Cc2ccc3cc(O)ccc3c2)n2cnnc2)cc1 | 281 to 284 °C
95 | CC(C)OC(C)c1cc2c(=O)n(NS(C)(=O)=O)c(=O)[nH]c2cc1C(F)(F)F (stereo not drawn) | 110 to 115 °C
96 | CCCCCOc1cccc(N)c1C#N | 70 to 73 °C
97 | O=C(O)CCCCN1CCC(Cc2ccccc2)CC1 | 148 to 151 °C
98 | Nc1c(N(CC(=O)O)Cc2ccccc2)c(=O)c1=O | 177 to 179 °C
